Measurements published in patent US20200345633A1, “Pharmaceutical Compositions for Controlling and/or Reducing the Progression of Myopia” (Brien Holden Vision Institute Limited, priority 2017, published 2020).
Like-named read-outs stand apart in the source and are kept apart here.

Columns and labels:
[1] = system: myopia; details: oral administration, young myopic children, one year; cited from earlier work
[2] = system: myopia; details: cited from earlier work
[3] = system: primate eyes; experiment: Choroidal thickness via Ocular Coherence Tomography (OCT) after eye drops in primate eyes; details: atropine at 0.1 wt. % concentration; data not shown
[4] = system: accommodation; details: systemic intake; cited from earlier work
[5] = system: human eye; details: concentration of 1 wt. %; cited from earlier work

For `Cn1cnc2[nH]c(=O)[nH]c(=O)c21` [7-methylxanthine], the axial eye growth [1] is listed as “retards axial eye growth”, the progression of myopia [1] is listed as “slowing of the progression of myopia” and the side effects [1] is listed as “without significant side effects”.

For `CN1[C@@H]2CC[C@H]1C[C@@H](OC(=O)C(CO)c1ccccc1)C2` (stereo partly drawn) [atropine], the “effect on accommodative amplitude” value ([2]; 0.01 wt. %) is given as “not significant”, the pupil size increase ([2]; 0.01 wt. %) is given as “minimal” and the adverse effects ([2]; concentrations of 1% and 0.5%) is given as “significant short term adverse effects”. For the same molecule, the progression of myopia ([2]; initially used in concentrations of approximately 1%) was “slow the progression of myopia”, the axial length elongation ([2]; low dose, 0.01 wt %) was “not effective in reducing axial length elongation” and the side effects ([2]; low-concentration topical, 0.01 wt. %) was “not induce side effects”. For the same molecule, the adverse effects [3] was “adverse effects result”.

In the case of `Cn1c(=O)c2c(ncn2C)n(C)c1=O` [caffeine], the accommodation [4] is given as “enhances accommodation” and the “safety of topical use” value [5] is given as “safely been used topically”.
